Results on one substance are retold here after US9283277B2, “Methods and compositions for the treatment of obesity” (Children's Medical Center Corporation, priority 2008, dated 2016).

In test [1] the test system is LepRB signaling (LepRB, Jak2, Stat3). The test is described as follows: Tunicamycin dose curve and time course in Ad-LacZ, Ad-XBP1s or Ad-ATF6n infected LepRb-expressing 293 cells. Format: cell-based, Human. The text has this:
To determine whether exogenous expression of XBP1s and a consequent increase in ER folding capacity would enhance leptin receptor signaling, we generated an XBP1s-encoding adenovirus (Ad-XBP1s) and also a LacZ-expressing adenovirus (Ad-LacZ) as a control. Infection of mouse embryonic fibroblasts (MEFs) with Ad-XBP1s increased the protein level of XBP1s (data not shown). To test whether the expressed XBP1s was functional, we co-infected cells with Ad-XBP1s and a luciferase reporter gene-driven by an ERSE. […] ERDJ4 is a chaperone and involved in folding of ER proteins. […] After showing that Ad-XBP1s is functional and can increase ER folding capacity, we subsequently overexpressed the XBP1s in the LepRb-expressing 293 cells and performed two sets of experiments. In the first, we asked whether XBP1s overexpression could enhance the leptin-stimulated tyrosine phosphorylation of LepRb and increase the ability of the cells withstand to the ER stress-mediated blockade of LepRb activation. For this purpose we stimulated the 293 cells with increasing doses of tunicamycin (0.001, 0.01, 0.05, 0.1 and 1 μg/ml) for 5 hours and analyzed leptin-stimulated LepRb activation. In Ad-LacZ infected cells, LepRb activation was blocked at tunicamycin doses of 0.01 μg/ml and higher (data not shown). […]

For test [2] the test system is unchanged. As to the kind of experiment: Leptin receptor signaling in LepRB-expressing 293 cells under tunicamycin-induced ER stress. It counts as cell-based, Human. Particulars: then leptin 100 ng/ml 45 minutes. The text has this: The leptin receptor belongs to the interleukin 6 (IL-6) receptor family of class I cytokine receptors^30. […] Binding of leptin to LepRb initiates a conformational change that leads to trans-autophosphorylation and activation of LepRb-associated Jak2^31,32 Activated Jak2 then phosphorylates the tyrosine residues within the LepRb/Jak2 complex to mediate downstream signaling. […] To examine whether UPR might alter the leptin signaling, LepRB-expressing 293 cells were first exposed to tunicamycin (3 μg/ml) to activate ER stress for a period of 4 hours and then treated with leptin (100 ng/ml) for 45 minutes. […] Finally, as a downstream element, leptin-stimulated Stat3 activation was analyzed.

In the next test the test system is LepRB. As to the kind of experiment: LepRB membrane translocation (immunofluorescence) and leptin-binding assay in 293 cells. Format: cell-based, Human. Here is the method: Considering the fact that LepRB is folded in the ER, we investigated whether ER stress blocks leptin receptor translocation to the membrane from the ER and whether this could be a reason for the blockade of leptin signaling. We stimulated the 293 cells with tunicamycin for five hours (3 μg/ml) and analyzed leptin receptor levels in the plasma membrane by immunofluoresence staining. It was observed that LepRB folding is still preserved and its translocation to the membrane is not decreased in ER stress conditions. Next, we performed leptin-binding assays in DMSO and tunicamycin-treated cells to exclude the possibility of a defect in binding of leptin to LepRB.

In another test the test system is insulin receptor (IR). The test is described as follows: Insulin receptor activation in LepRB-expressing 293 cells after tunicamycin. It counts as cell-based, Human. Particulars: tunicamycin 3 μg/ml five hours, insulin 100 nM five minutes. Here is the method:
To exclude the possibility that LepRB-expressing 293 cells become dysfunctional due to a possible toxicity generated by tunicamycin, we investigated the insulin receptor (IR) activation by stimulating the cells with insulin (100 nM) for five minutes after five-hour tunicamycin (3 μg/ml) treatment.

The test system of test [3] is hypothalamus of lean mice. The test is described as follows: Tunicamycin infusion to the third ventricle of lean mice. It counts as in vivo. The text has this:
Having shown that ER stress is increased in the hypothalamus of HFD-fed mice and causes leptin resistance in the cellular systems, we sought to investigate whether leptin action could also be blocked by directly inducing ER stress in brains of lean mice.
Next, we investigated the expression patterns of leptin resistance markers such as neuropeptide Y (NPY) and agouti related peptide (AgRP) in the vehicle- and tunicamycin-infused mice. […] In addition, to exclude the possibility that tunicamycin infusion leads to a decay in mRNA degradation of NPY and AgRP due to a possible toxic effect, we analyzed mRNA levels of IR and insulin receptor substrate 1 (IRS1).
To assess whether increased ER stress and activation of UPR signaling would create leptin resistance and block the leptin-stimulated Stat3 activation in the hypothalamus, leptin (1 mg/kg/day) was intraperitoneally administered 5½ hours after tunicamycin infusion. The experiment was ended by dissection of the hypothalami 30 minutes after leptin administration. […] In contrast, administration of tunicamycin to the third ventricle and creation of ER stress, in complete accordance with our data obtained from 293 cells, blocked activation of Stat3 in the hypothalamus (data not shown).

Setting [4] is: tunicamycin 3 μg/ml (or DMSO) 4 hours.

A value given as a limit tells only on which side of the number the result lay.

With tunicamycin, the “time until leptin-stimulated LepRb, Jak2 activation and Stat3 tyrosine phosphorylation are blocked” value in test [1] (Ad-LacZ infected 293 cells, tunicamycin 0.05 μg/ml) is ≤ 2 h. The “CHOP mRNA expression” value in test [1] (tunicamycin 0.01 and 0.05 μg/ml, five hours) is “upregulates”. Also, in test [2] (tunicamycin 3 μg/ml 4 hours), the “leptin-stimulated Jak2 tyrosine phosphorylation” value is “reduced to an undetectable level”. Also, in test [2] (setting [4]), the “leptin-induced Stat3 phosphorylation (Tyr705)” value is given as “totally abolished” and the “leptin-stimulated LepRB tyrosine phosphorylation” value is “completely inhibited”. Besides, the “LepRB translocation to the plasma membrane” value in the test with LepRB (293 cells, tunicamycin 3 μg/ml five hours, immunofluorescence) is reported as “not decreased”. Besides, the “leptin binding to LepRB” value with LepRB (tunicamycin-treated vs DMSO-treated cells) was “significantly increased”. In addition, the “insulin-stimulated IR tyrosine phosphorylation” value with insulin receptor (IR) was “did not change”. Also, the “Stat3 phosphorylation (activation) in the hypothalamus” value in test [3] (leptin 1 mg/kg IP 5½ hours after third ventricle tunicamycin or vehicle infusion, 30 minutes after leptin) is given as “blocked”. In addition, in test [3] (third ventricle infusion), the “POMC mRNA levels in hypothalamus” value is recorded as “did not show any significant difference”; the acute food intake entry is given as “significantly increased”; the “hypothalamic mRNA levels of IR and IRS1” value was “does not lead to a change”; the “mRNA levels of NPY and AgRP in hypothalamus” value is reported as “significant increase”. Further, the “mRNA levels of ER stress-responsive genes (XBP1s, CHOP, ERDJ4) in hypothalamus” value in test [3] (third ventricle infusion, twelve hours after infusion) is reported as “significantly upregulated”.
